# Source: PubChem BioAssay (NCI)
#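 Cultured in 96-well plates, cells were exposed to test compound for 48 hours across five concentrations. The concentration for full growth arrest is given as TGI.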
# Tests used:
# Test in all cases: NCI tumour cell line growth inhibition, 48 h
# M14 melanoma = system: M14 melanoma
# NCI/ADR-RES ovarian = system: NCI/ADR-RES ovarian
# HL-60(TB) leukemia = system: HL-60(TB) leukemia
# NCI-H460 lung = system: NCI-H460 lung
# HCT-116 colon = system: HCT-116 colon
# RPMI-8226 leukemia = system: RPMI-8226 leukemia
# A498 renal = system: A498 renal
# HCC-2998 colon = system: HCC-2998 colon
# RXF 393 renal = system: RXF 393 renal
# NCI-H23 lung = system: NCI-H23 lung
# MALME-3M melanoma = system: MALME-3M melanoma
# SF-539 CNS = system: SF-539 CNS
# COLO 205 colon = system: COLO 205 colon
# MDA-N = system: MDA-N
# UACC-62 melanoma = system: UACC-62 melanoma
# HT29 colon = system: HT29 colon
# NCI-H226 lung = system: NCI-H226 lung
# IGROV1 ovarian = system: IGROV1 ovarian
# MDA-MB-435 = system: MDA-MB-435
# MOLT-4 leukemia = system: MOLT-4 leukemia
# CCRF-CEM leukemia = system: CCRF-CEM leukemia
# HCT-15 colon = system: HCT-15 colon
# SF-295 CNS = system: SF-295 CNS
# OVCAR-4 ovarian = system: OVCAR-4 ovarian
# CAKI-1 renal = system: CAKI-1 renal
# LOX IMVI melanoma = system: LOX IMVI melanoma
# EKVX NSCLC = system: EKVX NSCLC
# OVCAR-5 ovarian = system: OVCAR-5 ovarian
# PC-3 prostate = system: PC-3 prostate
# HOP-92 NSCLC = system: HOP-92 NSCLC
# NCI-H522 lung = system: NCI-H522 lung
# SW-620 colon = system: SW-620 colon
# 786-0 renal = system: 786-0 renal
# MCF7 breast = system: MCF7 breast
# SK-MEL-5 melanoma = system: SK-MEL-5 melanoma
# A549 NSCLC = system: A549 NSCLC
# DU-145 prostate = system: DU-145 prostate
# SNB-19 CNS = system: SNB-19 CNS
# HOP-62 NSCLC = system: HOP-62 NSCLC
# SR leukemia = system: SR leukemia
# HS 578T breast = system: HS 578T breast
# SK-MEL-2 melanoma = system: SK-MEL-2 melanoma
# SF-268 CNS = system: SF-268 CNS
# U251 CNS = system: U251 CNS
# ACHN renal = system: ACHN renal
# T-47D breast = system: T-47D breast
# UO-31 renal = system: UO-31 renal
# OVCAR-3 ovarian = system: OVCAR-3 ovarian
# TK-10 renal = system: TK-10 renal
# SN12C renal = system: SN12C renal
# SK-MEL-28 melanoma = system: SK-MEL-28 melanoma
# SK-OV-3 ovarian = system: SK-OV-3 ovarian
# K-562 leukemia = system: K-562 leukemia
# KM12 colon = system: KM12 colon
# MDA-MB-231 breast = system: MDA-MB-231 breast
# UACC-257 melanoma = system: UACC-257 melanoma
# OVCAR-8 ovarian = system: OVCAR-8 ovarian
# SNB-75 CNS = system: SNB-75 CNS
smiles,measurement,setting,value
C[C@@H]1CC[C@]2(C)C3(C)CC[C@]2(OC3=O)[C@@]12CC(c1ccoc1)OC2=O (some centres undefined),TGI,M14 melanoma,57.2 µM
same,TGI,NCI/ADR-RES ovarian,> 100 µM
same,TGI,HL-60(TB) leukemia,44.3 µM
same,TGI,NCI-H460 lung,> 100 µM
same,TGI,HCT-116 colon,32.1 µM
same,TGI,RPMI-8226 leukemia,77.5 µM
same,TGI,A498 renal,> 100 µM
same,TGI,HCC-2998 colon,> 100 µM
same,TGI,RXF 393 renal,46.9 µM
same,TGI,NCI-H23 lung,> 100 µM
same,TGI,MALME-3M melanoma,41.2 µM
same,TGI,SF-539 CNS,59.2 µM
same,TGI,COLO 205 colon,41.4 µM
same,TGI,MDA-N,> 100 µM
same,TGI,UACC-62 melanoma,> 100 µM
same,TGI,HT29 colon,> 100 µM
same,TGI,NCI-H226 lung,> 100 µM
same,TGI,IGROV1 ovarian,64.7 µM
same,TGI,MDA-MB-435,56.4 µM
same,TGI,MOLT-4 leukemia,84.4 µM
same,TGI,CCRF-CEM leukemia,65.9 µM
same,TGI,HCT-15 colon,> 100 µM
same,TGI,SF-295 CNS,> 100 µM
same,TGI,OVCAR-4 ovarian,48.3 µM
same,TGI,CAKI-1 renal,72.6 µM
same,TGI,LOX IMVI melanoma,43.6 µM
same,TGI,EKVX NSCLC,> 100 µM
same,TGI,OVCAR-5 ovarian,78.4 µM
same,TGI,PC-3 prostate,> 100 µM
same,TGI,HOP-92 NSCLC,69.2 µM
same,TGI,NCI-H522 lung,4.46 µM
same,TGI,SW-620 colon,74.2 µM
same,TGI,786-0 renal,40.7 µM
same,TGI,MCF7 breast,> 100 µM
same,TGI,SK-MEL-5 melanoma,> 100 µM
same,TGI,A549 NSCLC,> 100 µM
same,TGI,DU-145 prostate,> 100 µM
same,TGI,SNB-19 CNS,> 100 µM
same,TGI,HOP-62 NSCLC,> 100 µM
same,TGI,SR leukemia,81 µM
same,TGI,HS 578T breast,> 100 µM
same,TGI,SK-MEL-2 melanoma,> 100 µM
same,TGI,SF-268 CNS,> 100 µM
same,TGI,U251 CNS,> 100 µM
same,TGI,ACHN renal,43.6 µM
same,TGI,T-47D breast,> 100 µM
same,TGI,UO-31 renal,45.5 µM
same,TGI,OVCAR-3 ovarian,58.2 µM
same,TGI,TK-10 renal,96.7 µM
same,TGI,SN12C renal,95.5 µM
same,TGI,SK-MEL-28 melanoma,66.3 µM
same,TGI,SK-OV-3 ovarian,> 100 µM
same,TGI,K-562 leukemia,76.3 µM
same,TGI,KM12 colon,> 100 µM
Cn1c2ccccc2c(=O)c2c(O)cc3c(c21)C1OCC(C)(O)C1O3 (centres undefined),TGI,M14 melanoma,> 100 µM
same,TGI,NCI/ADR-RES ovarian,> 100 µM
same,TGI,HL-60(TB) leukemia,> 100 µM
same,TGI,HCT-116 colon,> 100 µM
same,TGI,RPMI-8226 leukemia,> 100 µM
same,TGI,HCC-2998 colon,> 100 µM
same,TGI,RXF 393 renal,69 µM
same,TGI,SF-539 CNS,56.2 µM
same,TGI,COLO 205 colon,> 100 µM
same,TGI,MDA-N,> 100 µM
same,TGI,HT29 colon,> 100 µM
same,TGI,NCI-H226 lung,63.5 µM
same,TGI,IGROV1 ovarian,79.7 µM
same,TGI,MDA-MB-435,> 100 µM
same,TGI,MOLT-4 leukemia,> 100 µM
same,TGI,CCRF-CEM leukemia,> 100 µM
same,TGI,HCT-15 colon,> 100 µM
same,TGI,MDA-MB-231 breast,> 100 µM
same,TGI,OVCAR-4 ovarian,> 100 µM
same,TGI,CAKI-1 renal,> 100 µM
same,TGI,EKVX NSCLC,> 100 µM
same,TGI,OVCAR-5 ovarian,> 100 µM
same,TGI,PC-3 prostate,> 100 µM
same,TGI,UACC-257 melanoma,> 100 µM
same,TGI,SW-620 colon,> 100 µM
same,TGI,786-0 renal,> 100 µM
same,TGI,MCF7 breast,> 100 µM
same,TGI,SK-MEL-5 melanoma,> 100 µM
same,TGI,A549 NSCLC,> 100 µM
same,TGI,DU-145 prostate,> 100 µM
same,TGI,SNB-19 CNS,> 100 µM
same,TGI,HOP-62 NSCLC,> 100 µM
same,TGI,OVCAR-8 ovarian,> 100 µM
same,TGI,SR leukemia,> 100 µM
same,TGI,HS 578T breast,37.5 µM
same,TGI,SK-MEL-2 melanoma,> 100 µM
same,TGI,SF-268 CNS,86.6 µM
same,TGI,U251 CNS,62.5 µM
same,TGI,ACHN renal,> 100 µM
same,TGI,T-47D breast,> 100 µM
same,TGI,UO-31 renal,36.6 µM
same,TGI,TK-10 renal,> 100 µM
same,TGI,SN12C renal,> 100 µM
same,TGI,SK-MEL-28 melanoma,> 100 µM
same,TGI,SK-OV-3 ovarian,> 100 µM
same,TGI,K-562 leukemia,> 100 µM
same,TGI,SNB-75 CNS,56 µM
Cc1ccc(S(=O)(=O)N(CC(O)COc2ccccc2)c2c(F)cccc2F)cc1 (centres undefined),TGI,M14 melanoma,32 µM
same,TGI,NCI/ADR-RES ovarian,43.1 µM
same,TGI,HL-60(TB) leukemia,93.1 µM
same,TGI,NCI-H460 lung,31.6 µM
same,TGI,RPMI-8226 leukemia,34 µM
same,TGI,A498 renal,38.8 µM
same,TGI,HCC-2998 colon,47.6 µM
same,TGI,RXF 393 renal,26.1 µM
same,TGI,NCI-H23 lung,44.8 µM
same,TGI,MALME-3M melanoma,52.4 µM
same,TGI,SF-539 CNS,33 µM
same,TGI,COLO 205 colon,27.9 µM
same,TGI,MDA-N,31.4 µM
same,TGI,UACC-62 melanoma,36.3 µM
same,TGI,HT29 colon,36.3 µM
same,TGI,NCI-H226 lung,71.1 µM
same,TGI,MDA-MB-435,30.5 µM
same,TGI,MOLT-4 leukemia,> 100 µM
same,TGI,CCRF-CEM leukemia,95.8 µM
same,TGI,HCT-15 colon,37 µM
same,TGI,MDA-MB-231 breast,43.8 µM
same,TGI,SF-295 CNS,86 µM
same,TGI,OVCAR-4 ovarian,31.7 µM
same,TGI,CAKI-1 renal,33.8 µM
same,TGI,LOX IMVI melanoma,28.5 µM
same,TGI,EKVX NSCLC,95.7 µM
same,TGI,OVCAR-5 ovarian,> 100 µM
same,TGI,PC-3 prostate,36.9 µM
same,TGI,HOP-92 NSCLC,8.48 µM
same,TGI,UACC-257 melanoma,44.5 µM
same,TGI,SW-620 colon,67.7 µM
same,TGI,786-0 renal,42.1 µM
same,TGI,MCF7 breast,30.7 µM
same,TGI,SK-MEL-5 melanoma,27.2 µM
same,TGI,A549 NSCLC,40.1 µM
same,TGI,DU-145 prostate,> 100 µM
same,TGI,SNB-19 CNS,> 100 µM
same,TGI,HOP-62 NSCLC,42.7 µM
same,TGI,OVCAR-8 ovarian,35.5 µM
same,TGI,SR leukemia,61.4 µM
same,TGI,HS 578T breast,46.1 µM
same,TGI,SK-MEL-2 melanoma,32.5 µM
same,TGI,SF-268 CNS,37.4 µM
same,TGI,U251 CNS,29.1 µM
same,TGI,ACHN renal,40.1 µM
same,TGI,T-47D breast,20.1 µM
same,TGI,UO-31 renal,38.7 µM
same,TGI,OVCAR-3 ovarian,30.3 µM
same,TGI,TK-10 renal,97.5 µM
same,TGI,SN12C renal,47.8 µM
same,TGI,SK-MEL-28 melanoma,31 µM
same,TGI,SK-OV-3 ovarian,41.3 µM
same,TGI,K-562 leukemia,> 100 µM
same,TGI,SNB-75 CNS,49 µM
same,TGI,KM12 colon,56.3 µM
CCN(CC)CCNc1ccc([N+](=O)[O-])c2nc3ccc(OC)cc3c(NCCN(CC)CC)c12,TGI,M14 melanoma,> 5.3 µM
same,TGI,NCI/ADR-RES ovarian,2.76 µM
same,TGI,HL-60(TB) leukemia,2.53 µM
same,TGI,NCI-H460 lung,1.41 µM
same,TGI,HCT-116 colon,2.13 µM
same,TGI,RPMI-8226 leukemia,> 4.4 µM
same,TGI,A498 renal,4.05 µM
same,TGI,HCC-2998 colon,2.01 µM
same,TGI,RXF 393 renal,2.59 µM
same,TGI,NCI-H23 lung,4.38 µM
same,TGI,MALME-3M melanoma,5.07 µM
same,TGI,SF-539 CNS,2.43 µM
same,TGI,COLO 205 colon,1.59 µM
same,TGI,MDA-N,2.39 µM
same,TGI,UACC-62 melanoma,> 10 µM
same,TGI,HT29 colon,2.63 µM
same,TGI,NCI-H226 lung,3.8 µM
same,TGI,IGROV1 ovarian,7.15 µM
same,TGI,MDA-MB-435,> 4.78 µM
same,TGI,MOLT-4 leukemia,> 3.13 µM
same,TGI,CCRF-CEM leukemia,1.54 µM
same,TGI,HCT-15 colon,2.52 µM
same,TGI,MDA-MB-231 breast,2.45 µM
same,TGI,SF-295 CNS,2.6 µM
same,TGI,OVCAR-4 ovarian,3.1 µM
same,TGI,CAKI-1 renal,8.6 µM
same,TGI,LOX IMVI melanoma,2.43 µM
same,TGI,EKVX NSCLC,5.02 µM
same,TGI,OVCAR-5 ovarian,4.79 µM
same,TGI,PC-3 prostate,2.1 µM
same,TGI,HOP-92 NSCLC,5.42 µM
same,TGI,NCI-H522 lung,2.51 µM
same,TGI,UACC-257 melanoma,> 10 µM
same,TGI,SW-620 colon,2.51 µM
same,TGI,786-0 renal,1.56 µM
same,TGI,MCF7 breast,2.71 µM
same,TGI,SK-MEL-5 melanoma,2.98 µM
same,TGI,A549 NSCLC,3.4 µM
same,TGI,DU-145 prostate,> 7.37 µM
same,TGI,SNB-19 CNS,2.78 µM
same,TGI,HOP-62 NSCLC,3.75 µM
same,TGI,OVCAR-8 ovarian,> 4.16 µM
same,TGI,SR leukemia,0.609 µM
same,TGI,HS 578T breast,3.91 µM
same,TGI,SK-MEL-2 melanoma,4.87 µM
same,TGI,SF-268 CNS,> 10 µM
same,TGI,U251 CNS,2.59 µM
same,TGI,ACHN renal,> 10 µM
same,TGI,T-47D breast,> 10 µM
same,TGI,UO-31 renal,3.71 µM
same,TGI,OVCAR-3 ovarian,4.95 µM
same,TGI,TK-10 renal,> 8.78 µM
same,TGI,SN12C renal,3.69 µM
same,TGI,SK-MEL-28 melanoma,> 8.37 µM
same,TGI,SK-OV-3 ovarian,> 10 µM
same,TGI,K-562 leukemia,1.38 µM
same,TGI,SNB-75 CNS,> 5.11 µM
same,TGI,KM12 colon,3.6 µM
